#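 Tested at 5 concentrations; 48 h exposure; 96-well plates; endpoints linearly interpolated, else capped at highest concentration. Definition used: TGI = concentration required for complete inhibition of growth.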
# How the values were obtained:
# Experiment in all cases: NCI-60 cell line screen, 48 h
# MALME-3M melanoma = test system: MALME-3M melanoma
# DU-145 prostate = test system: DU-145 prostate
# HOP-92 NSCLC = test system: HOP-92 NSCLC
# CAKI-1 renal = test system: CAKI-1 renal
# ACHN renal = test system: ACHN renal
# COLO 205 colon = test system: COLO 205 colon
# LOX IMVI melanoma = test system: LOX IMVI melanoma
# SW-620 colon = test system: SW-620 colon
# SK-MEL-5 melanoma = test system: SK-MEL-5 melanoma
# PC-3 prostate = test system: PC-3 prostate
# UACC-257 melanoma = test system: UACC-257 melanoma
# M14 melanoma = test system: M14 melanoma
# HOP-62 NSCLC = test system: HOP-62 NSCLC
# SK-MEL-28 melanoma = test system: SK-MEL-28 melanoma
# MOLT-4 leukemia = test system: MOLT-4 leukemia
# NCI/ADR-RES ovarian = test system: NCI/ADR-RES ovarian
# EKVX NSCLC = test system: EKVX NSCLC
# SNB-75 CNS = test system: SNB-75 CNS
# SK-OV-3 ovarian = test system: SK-OV-3 ovarian
# SN12C renal = test system: SN12C renal
# OVCAR-5 ovarian = test system: OVCAR-5 ovarian
# HS 578T breast = test system: HS 578T breast
# MDA-N = test system: MDA-N
# SK-MEL-2 melanoma = test system: SK-MEL-2 melanoma
# HCC-2998 colon = test system: HCC-2998 colon
# IGROV1 ovarian = test system: IGROV1 ovarian
# CCRF-CEM leukemia = test system: CCRF-CEM leukemia
# A498 renal = test system: A498 renal
# HCT-15 colon = test system: HCT-15 colon
# TK-10 renal = test system: TK-10 renal
# 786-0 renal = test system: 786-0 renal
# SF-268 CNS = test system: SF-268 CNS
# T-47D breast = test system: T-47D breast
# UACC-62 melanoma = test system: UACC-62 melanoma
# OVCAR-4 ovarian = test system: OVCAR-4 ovarian
# HT29 colon = test system: HT29 colon
# A549 NSCLC = test system: A549 NSCLC
# UO-31 renal = test system: UO-31 renal
# OVCAR-3 ovarian = test system: OVCAR-3 ovarian
# MDA-MB-231 breast = test system: MDA-MB-231 breast
# SNB-19 CNS = test system: SNB-19 CNS
# SF-539 CNS = test system: SF-539 CNS
# K-562 leukemia = test system: K-562 leukemia
# RPMI-8226 leukemia = test system: RPMI-8226 leukemia
# NCI-H226 lung = test system: NCI-H226 lung
# SF-295 CNS = test system: SF-295 CNS
# OVCAR-8 ovarian = test system: OVCAR-8 ovarian
# NCI-H460 lung = test system: NCI-H460 lung
# NCI-H522 lung = test system: NCI-H522 lung
# MDA-MB-435 = test system: MDA-MB-435
# HCT-116 colon = test system: HCT-116 colon
# U251 CNS = test system: U251 CNS
# BT-549 breast = test system: BT-549 breast
# RXF 393 renal = test system: RXF 393 renal
# KM12 colon = test system: KM12 colon
# SR leukemia = test system: SR leukemia
# NCI-H23 lung = test system: NCI-H23 lung
# HL-60(TB) leukemia = test system: HL-60(TB) leukemia
smiles,measurement,setting,value
CN(C)c1nc2n(CCO)ccnc-2c(=O)n1,TGI,MALME-3M melanoma,> 100 µM
same,TGI,DU-145 prostate,> 100 µM
same,TGI,HOP-92 NSCLC,> 100 µM
same,TGI,CAKI-1 renal,> 100 µM
same,TGI,ACHN renal,> 100 µM
same,TGI,COLO 205 colon,> 100 µM
same,TGI,LOX IMVI melanoma,> 100 µM
same,TGI,SW-620 colon,> 100 µM
same,TGI,SK-MEL-5 melanoma,> 100 µM
same,TGI,PC-3 prostate,> 100 µM
same,TGI,UACC-257 melanoma,> 100 µM
same,TGI,M14 melanoma,> 100 µM
same,TGI,HOP-62 NSCLC,> 100 µM
same,TGI,SK-MEL-28 melanoma,> 100 µM
same,TGI,MOLT-4 leukemia,> 100 µM
same,TGI,NCI/ADR-RES ovarian,> 100 µM
same,TGI,EKVX NSCLC,> 100 µM
same,TGI,SNB-75 CNS,> 100 µM
same,TGI,SK-OV-3 ovarian,> 100 µM
same,TGI,SN12C renal,> 100 µM
same,TGI,OVCAR-5 ovarian,> 100 µM
same,TGI,HS 578T breast,> 100 µM
same,TGI,MDA-N,> 100 µM
same,TGI,SK-MEL-2 melanoma,> 100 µM
same,TGI,HCC-2998 colon,> 100 µM
same,TGI,IGROV1 ovarian,> 100 µM
same,TGI,CCRF-CEM leukemia,> 100 µM
same,TGI,A498 renal,> 100 µM
same,TGI,HCT-15 colon,> 100 µM
same,TGI,TK-10 renal,> 100 µM
same,TGI,786-0 renal,> 100 µM
same,TGI,SF-268 CNS,> 100 µM
same,TGI,T-47D breast,> 100 µM
same,TGI,UACC-62 melanoma,> 100 µM
same,TGI,OVCAR-4 ovarian,> 100 µM
same,TGI,HT29 colon,> 100 µM
same,TGI,A549 NSCLC,> 100 µM
same,TGI,UO-31 renal,> 100 µM
same,TGI,OVCAR-3 ovarian,> 100 µM
same,TGI,MDA-MB-231 breast,> 100 µM
same,TGI,SNB-19 CNS,> 100 µM
same,TGI,SF-539 CNS,> 100 µM
same,TGI,K-562 leukemia,> 100 µM
same,TGI,RPMI-8226 leukemia,> 100 µM
same,TGI,NCI-H226 lung,> 100 µM
same,TGI,SF-295 CNS,> 100 µM
same,TGI,OVCAR-8 ovarian,> 100 µM
same,TGI,NCI-H460 lung,> 100 µM
same,TGI,NCI-H522 lung,> 100 µM
same,TGI,MDA-MB-435,> 100 µM
same,TGI,HCT-116 colon,> 100 µM
same,TGI,U251 CNS,> 100 µM
same,TGI,BT-549 breast,> 100 µM
same,TGI,RXF 393 renal,> 100 µM
same,TGI,KM12 colon,> 100 µM
same,TGI,SR leukemia,> 100 µM
same,TGI,NCI-H23 lung,> 100 µM
CS(=O)(=O)Nc1ccc2c(c1)N(S(C)(=O)=O)CC2COS(C)(=O)=O (stereo unspecified),TGI,MALME-3M melanoma,> 100 µM
same,TGI,DU-145 prostate,> 100 µM
same,TGI,HOP-92 NSCLC,> 100 µM
same,TGI,CAKI-1 renal,> 100 µM
same,TGI,ACHN renal,> 100 µM
same,TGI,COLO 205 colon,> 100 µM
same,TGI,LOX IMVI melanoma,> 100 µM
same,TGI,SW-620 colon,> 100 µM
same,TGI,SK-MEL-5 melanoma,40.7 µM
same,TGI,PC-3 prostate,> 100 µM
same,TGI,UACC-257 melanoma,> 100 µM
same,TGI,HOP-62 NSCLC,70.9 µM
same,TGI,SK-MEL-28 melanoma,> 100 µM
same,TGI,MOLT-4 leukemia,> 100 µM
same,TGI,NCI/ADR-RES ovarian,> 100 µM
same,TGI,EKVX NSCLC,> 100 µM
same,TGI,SNB-75 CNS,> 100 µM
same,TGI,SN12C renal,> 100 µM
same,TGI,OVCAR-5 ovarian,> 100 µM
same,TGI,HS 578T breast,> 100 µM
same,TGI,MDA-N,> 100 µM
same,TGI,SK-MEL-2 melanoma,71.7 µM
same,TGI,HCC-2998 colon,> 100 µM
same,TGI,IGROV1 ovarian,> 100 µM
same,TGI,CCRF-CEM leukemia,> 100 µM
same,TGI,A498 renal,> 100 µM
same,TGI,HCT-15 colon,> 100 µM
same,TGI,TK-10 renal,> 100 µM
same,TGI,786-0 renal,> 100 µM
same,TGI,HL-60(TB) leukemia,88.3 µM
same,TGI,T-47D breast,> 100 µM
same,TGI,UACC-62 melanoma,> 100 µM
same,TGI,OVCAR-4 ovarian,> 100 µM
same,TGI,HT29 colon,> 100 µM
same,TGI,A549 NSCLC,> 100 µM
same,TGI,UO-31 renal,> 100 µM
same,TGI,OVCAR-3 ovarian,> 100 µM
same,TGI,MDA-MB-231 breast,> 100 µM
same,TGI,SF-539 CNS,> 100 µM
same,TGI,K-562 leukemia,> 100 µM
same,TGI,RPMI-8226 leukemia,81.4 µM
same,TGI,NCI-H226 lung,> 100 µM
same,TGI,SF-295 CNS,> 100 µM
same,TGI,OVCAR-8 ovarian,> 100 µM
same,TGI,NCI-H460 lung,> 100 µM
same,TGI,NCI-H522 lung,43.1 µM
same,TGI,MDA-MB-435,> 100 µM
same,TGI,HCT-116 colon,> 100 µM
same,TGI,U251 CNS,59.2 µM
same,TGI,BT-549 breast,> 100 µM
same,TGI,RXF 393 renal,41.5 µM
same,TGI,KM12 colon,> 100 µM
same,TGI,SR leukemia,93.2 µM
same,TGI,NCI-H23 lung,> 100 µM

# — PubChem BioAssay (NCI)
